Measurements published in the NIST ThermoML archive (doi:10.1016/j.fluid.2009.03.002).
± gives the expanded uncertainty stated by the source.

Experiments:
[1] = wn = mass fraction of the nth substance listed; settings: 101 kPa, Liquid; for viscosity: Capillary tube (Ostwald / Ubbelohde) method; for mass density: Pycnometric method
[2] = relative permittivity at zero frequency (dimensionless); wn = mass fraction of the nth substance listed; settings: 101 kPa, Liquid, Parallel plate capacitor
[3] = cn = amount concentration of the nth substance listed, in mol/dm3; settings: 101 kPa, Liquid, Direct current cell with electrodes

OCCO [1,2-ethanediol] + CO
Settings	mass density, 293.15 K [kg/m3]	mass density, 298.15 K [kg/m3]	mass density, 303.15 K [kg/m3]	relative permittivity at zero frequency, 293.15 K	relative permittivity at zero frequency, 298.15 K	relative permittivity at zero frequency, 303.15 K	viscosity, 293.15 K [mPa·s]	viscosity, 298.15 K [mPa·s]	viscosity, 303.15 K [mPa·s]
[1], w1 = 0.25	864.7 ± 6	860.9 ± 6	858.6 ± 6	–	–	–	1.127 ± 0.01	1.03 ± 0.0098	0.9454 ± 0.0094
[1], w1 = 0.5	938.3 ± 6	933.8 ± 6	932.1 ± 6	–	–	–	2.269 ± 0.018	2.045 ± 0.017	1.81 ± 0.015
[1], w1 = 0.75	1023.4 ± 6	1019.6 ± 6	1017.3 ± 6	–	–	–	5.8 ± 0.042	4.904 ± 0.036	4.232 ± 0.032
[2], w1 = 0.25	–	–	–	35.2 ± 0.1	34.7 ± 0.1	33.7 ± 0.1	–	–	–
[2], w1 = 0.5	–	–	–	37.3 ± 0.1	36.7 ± 0.1	35.6 ± 0.1	–	–	–
[2], w1 = 0.75	–	–	–	39.3 ± 0.1	38.7 ± 0.1	37.4 ± 0.1	–	–	–

N#C[S-].[Na+] [sodium thiocyanate] + CO
molar conductivity [S·m2/mol], [3]
Settings	293.15 K	298.15 K	303.15 K
c1 = 0.0006986	0.00956 ± 1e-06	0.01035 ± 1e-06	0.01085 ± 1e-06
c1 = 0.001002	0.009407 ± 1e-06	0.010245 ± 1e-06	–
c1 = 0.001281	–	–	0.0106 ± 1e-06
c1 = 0.001537	0.009271 ± 1e-06	0.0101 ± 1e-06	0.010507 ± 1e-06
c1 = 0.001773	0.009192 ± 1e-06	0.010014 ± 1e-06	0.01045 ± 1e-06
c1 = 0.002195	–	0.009936 ± 1e-06	0.010314 ± 1e-06
c1 = 0.002385	0.008993 ± 1e-06	0.009871 ± 1e-06	0.010271 ± 1e-06
c1 = 0.002561	0.00895 ± 1e-06	0.009821 ± 1e-06	0.010214 ± 1e-06
c1 = 0.003164	0.008836 ± 1e-06	0.009707 ± 1e-06	0.01008 ± 1e-06
c1 = 0.003415	0.008784 ± 1e-06	0.009675 ± 1e-06	0.010014 ± 1e-06
c1 = 0.00364	–	0.009616 ± 1e-06	0.009979 ± 1e-06
c1 = 0.003842	0.00872 ± 1e-06	–	–
c1 = 0.004191	0.008664 ± 1e-06	0.009507 ± 1e-06	0.009864 ± 1e-06
c1 = 0.004343	0.00868 ± 1e-06	–	–
c1 = 0.004729	–	0.009414 ± 1e-06	–
c1 = 0.004838	0.008578 ± 1e-06	–	0.009735 ± 1e-06
c1 = 0.005035	0.008541 ± 1e-06	–	0.009713 ± 1e-06
c1 = 0.005489	–	0.009293 ± 1e-06	–
c1 = 0.005607	–	–	0.0096 ± 1e-06
c1 = 0.005662	0.008477 ± 1e-06	–	–
c1 = 0.005855	–	0.00925 ± 1e-06	–
c1 = 0.006014	–	0.009229 ± 1e-06	–
c1 = 0.006261	–	–	0.009493 ± 1e-06
c1 = 0.006336	0.008396 ± 1e-06	–	–

CC(=O)[O-].[Na+] [sodium ethanoate] + CO
molar conductivity [S·m2/mol], [3]
Settings	293.15 K	298.15 K	303.15 K
c1 = 0.0007037	0.007613 ± 1e-06	0.00835 ± 1e-06	0.00893 ± 1e-06
c1 = 0.00101	0.007497 ± 1e-06	0.00824 ± 1e-06	0.00857 ± 1e-06
c1 = 0.00129	–	0.008107 ± 1e-06	–
c1 = 0.001548	0.007306 ± 1e-06	–	0.00804 ± 1e-06
c1 = 0.001786	0.007275 ± 1e-06	0.007949 ± 1e-06	0.00786 ± 1e-06
c1 = 0.002007	–	0.007893 ± 1e-06	0.0078 ± 1e-06
c1 = 0.002402	0.007159 ± 1e-06	0.007788 ± 1e-06	0.00754 ± 1e-06
c1 = 0.00258	0.007131 ± 1e-06	0.007732 ± 1e-06	0.0074 ± 1e-06
c1 = 0.003188	0.006994 ± 1e-06	0.007579 ± 1e-06	0.00714 ± 1e-06
c1 = 0.003441	0.006947 ± 1e-06	0.007529 ± 1e-06	0.00696 ± 1e-06
c1 = 0.003667	0.006913 ± 1e-06	0.007475 ± 1e-06	0.00692 ± 1e-06
c1 = 0.004222	0.006825 ± 1e-06	0.007371 ± 1e-06	0.0068 ± 1e-06
c1 = 0.004764	0.006759 ± 1e-06	0.007263 ± 1e-06	–
c1 = 0.004874	–	–	0.00643 ± 1e-06
c1 = 0.004976	0.006732 ± 1e-06	0.007194 ± 1e-06	–
c1 = 0.005072	–	–	0.00634 ± 1e-06
c1 = 0.005529	–	0.007125 ± 1e-06	–
c1 = 0.005591	0.006636 ± 1e-06	–	–
c1 = 0.005649	–	–	0.0062 ± 1e-06
c1 = 0.005756	0.006636 ± 1e-06	–	–
c1 = 0.005898	–	0.007044 ± 1e-06	–
c1 = 0.005982	–	–	0.00612 ± 1e-06
c1 = 0.006002	–	0.00701 ± 1e-06	–
c1 = 0.006253	0.006557 ± 1e-06	–	–
c1 = 0.006281	–	–	0.00612 ± 1e-06
c1 = 0.006493	0.00653 ± 1e-06	–	–

CO [methanol] + OCCO
w2 = 0
Settings	mass density, 293.15 K [kg/m3]	mass density, 298.15 K [kg/m3]	mass density, 303.15 K [kg/m3]	relative permittivity at zero frequency, 293.15 K	relative permittivity at zero frequency, 298.15 K	relative permittivity at zero frequency, 303.15 K	viscosity, 293.15 K [mPa·s]	viscosity, 298.15 K [mPa·s]	viscosity, 303.15 K [mPa·s]
[1]	791 ± 6	785.9 ± 6	781.4 ± 6	–	–	–	0.5814 ± 0.0076	0.5436 ± 0.0074	0.5112 ± 0.0073
[2]	–	–	–	33.1 ± 0.1	32.7 ± 0.1	31.9 ± 0.1	–	–	–

[I-].[Na+] [sodium iodide] + CO
molar conductivity [S·m2/mol], [3]
Settings	293.15 K	298.15 K	303.15 K
c1 = 0.0007005	0.008344 ± 1e-06	0.008814 ± 1e-06	0.0098 ± 1e-06
c1 = 0.001005	0.008236 ± 1e-06	0.008686 ± 1e-06	0.00954 ± 1e-06
c1 = 0.001541	0.00804 ± 1e-06	0.008464 ± 1e-06	0.009246 ± 1e-06
c1 = 0.001778	0.007969 ± 1e-06	0.008407 ± 1e-06	0.009148 ± 1e-06
c1 = 0.001998	–	0.008329 ± 1e-06	–
c1 = 0.002202	–	–	0.009014 ± 1e-06
c1 = 0.002391	0.00784 ± 1e-06	0.00825 ± 1e-06	0.00896 ± 1e-06
c1 = 0.002569	0.007786 ± 1e-06	0.008171 ± 1e-06	0.008907 ± 1e-06
c1 = 0.003036	0.007688 ± 1e-06	–	–
c1 = 0.003173	–	0.008019 ± 1e-06	0.00852 ± 1e-06
c1 = 0.003425	–	0.007956 ± 1e-06	0.00846 ± 1e-06
c1 = 0.003541	0.0076 ± 1e-06	–	–
c1 = 0.00365	–	0.007907 ± 1e-06	0.0084 ± 1e-06
c1 = 0.003754	0.007556 ± 1e-06	–	–
c1 = 0.004122	0.0075 ± 1e-06	–	–
c1 = 0.004203	–	0.007791 ± 1e-06	0.00825 ± 1e-06
c1 = 0.004684	0.007431 ± 1e-06	–	–
c1 = 0.004742	–	0.007697 ± 1e-06	–
c1 = 0.004852	–	–	0.00804 ± 1e-06
c1 = 0.004954	–	0.007663 ± 1e-06	–
c1 = 0.005049	–	–	0.008 ± 1e-06
c1 = 0.005094	0.007356 ± 1e-06	–	–
c1 = 0.005504	–	0.007571 ± 1e-06	–
c1 = 0.005623	–	–	0.00782 ± 1e-06
c1 = 0.005651	0.007288 ± 1e-06	–	–
c1 = 0.006031	–	0.007494 ± 1e-06	–
c1 = 0.00618	0.007194 ± 1e-06	–	–
c1 = 0.006252	–	–	0.0076 ± 1e-06
c1 = 0.006529	0.00715 ± 1e-06	–	–
